From US20220281886A1, “NATRIURETIC PEPTIDE RECEPTOR A AGONISTS USEFUL FOR THE TREATMENT OF CARDIOMETABOLIC DISEASES, KIDNEY DISEASE AND DIABETES” (Merck Sharp & Dohme Corp., priority 2019, published 2022)

Molecular target: T1, hNPRA (Homo sapiens, UniProt P16066)
T1 construct: expressed in transfected cells
T1 sequence (P16066 33-1061): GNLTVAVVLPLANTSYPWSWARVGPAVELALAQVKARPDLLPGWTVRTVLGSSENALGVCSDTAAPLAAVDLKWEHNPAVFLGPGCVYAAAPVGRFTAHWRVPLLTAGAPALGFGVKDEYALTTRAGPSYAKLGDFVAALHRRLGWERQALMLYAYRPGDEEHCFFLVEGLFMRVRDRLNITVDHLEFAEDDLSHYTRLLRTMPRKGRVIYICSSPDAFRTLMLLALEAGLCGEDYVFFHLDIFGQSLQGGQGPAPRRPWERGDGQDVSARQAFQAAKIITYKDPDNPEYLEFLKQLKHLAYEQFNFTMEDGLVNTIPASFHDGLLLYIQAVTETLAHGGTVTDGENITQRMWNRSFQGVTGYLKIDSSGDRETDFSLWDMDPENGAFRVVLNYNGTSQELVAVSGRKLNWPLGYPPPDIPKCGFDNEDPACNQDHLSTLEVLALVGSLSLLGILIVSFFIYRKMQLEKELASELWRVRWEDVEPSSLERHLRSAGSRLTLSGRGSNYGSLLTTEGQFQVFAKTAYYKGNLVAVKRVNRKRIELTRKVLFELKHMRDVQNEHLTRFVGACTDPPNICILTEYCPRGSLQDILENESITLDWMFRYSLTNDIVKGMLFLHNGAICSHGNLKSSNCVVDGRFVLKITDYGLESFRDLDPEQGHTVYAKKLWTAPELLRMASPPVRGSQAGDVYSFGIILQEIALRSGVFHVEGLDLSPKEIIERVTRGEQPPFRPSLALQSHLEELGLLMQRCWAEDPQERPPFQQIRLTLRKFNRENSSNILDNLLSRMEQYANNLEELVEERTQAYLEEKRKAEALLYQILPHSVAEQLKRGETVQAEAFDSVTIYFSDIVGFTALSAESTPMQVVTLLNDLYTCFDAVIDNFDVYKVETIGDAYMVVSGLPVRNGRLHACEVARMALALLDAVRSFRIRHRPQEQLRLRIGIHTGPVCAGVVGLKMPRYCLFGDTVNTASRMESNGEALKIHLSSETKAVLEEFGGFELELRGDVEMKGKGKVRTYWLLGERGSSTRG
Assay: NPRA Functional Cell Assay (cGMP HTRF)
Type: cell-based
Details: Human NPRA HEK JumpIn stable cells; cGMP by HTRF after 1 hour at 37° C.; 10-point dose response
Excerpt: Assay Buffer components HEPES and Opti-MEM® I Reduced-Serum with Glutamine (no phenol red) were from Gibco/Invitrogen (Thermo Fisher Scientific, Waltham, Mass. USA). 3-Isobutyl-1-methylxanthine (IBMX) and 4-(3-Butoxy-4-methoxybenzyl)imidazolidin-2-one (RO20) were obtained from Sigma-Aldrich (St. Louis, Mo., USA). DPBS (Dulbecco's phosphate-buffered saline) without Ca2+ and Mg2+ was purchased from GE Healthcare Bio-Sciences (Pittsburgh, Pa., USA). 384 well white Optiplates were from Perkin Elmer (Atlantic Highlands, N.J., USA). Human ANP (Atrial Natriuretic Peptide) (1-28) was purchased from Sigma-Aldrich (Catalog #A1663) and rat ANP (1-28) from Bachem (Torrance, Calif., USA) (Catalog #H2100). Human-BNP (Human-Brain Natriuretic Peptide) (1-32 AA) was purchased from American Peptide Company (Sunnyvale, Calif., USA) (product No. 14-1-90). cGMP kits were purchased from Cisbio. The assay ready frozen (ARF) Human/rat/dog NPRA HEK JumpIn Stable frozen cells (low passage number 5-11) were prepared in-house.
Test compounds were titrated in DMSO in a 10-point dose response in a separate step followed by a 100-fold dilution into the reaction. Positive response for each assay was determined using 10 nM rat-ANP peptide (rat cells) or 50 nM h-ANP peptide (human and dog cells).
Cells were thawed, washed with DPBS and resuspended in assay buffer (Opti-MEM+Glutamine, phenol red free media, 10 mM HEPES, 100 uM IBMX and 100 uM RO20) that was warmed to 37° C. Cells were then transferred to microplates via a Microplate Combi dispenser at a density of 1500, 400 and 1200 cells/well for human, rat and dog cells respectively, followed by acoustic transfer (Echo) of compound.
(§1) Compounds and cells were incubated at 37° C. with 5% CO2 for 1 hour, after which the cells were lysed and cGMP was captured using a CisBio cGMP HTRF assay kit. The TRF signal was measured with an Envision plate reader (emission set to 615 and 665 nm) after 1 hour incubation at ambient temperature. The TRF signal was converted to [cGMP] through the use of a cGMP calibration curve on each microplate. EC50's were generated from the resulting dose response curves by use of a 4 parameter logistic algorithm.
Assay Buffer components HEPES and Opti-MEM® I Reduced-Serum with Glutamine (no phenol red) were from Gibco/Invitrogen. 3-Isobutyl-1-methylxanthine (IBMX) and 4-(3-Butoxy-4-methoxybenzyl)imidazolidin-2-one (RO20) were obtained from Sigma. DPBS (Dulbecco's phosphate-buffered saline) without Ca2+ and Mg2+ was purchased from GE Healthcare Bio-Sciences (Pittsburgh, Pa., USA). 384 well white Optiplates were from Perkin Elmer (Atlantic Highlands, N.J., USA). Human ANP (1-28) was purchased from Sigma (A1663) and rat ANP (1-28) from Bachem (H2100). Human-BNP (1-32 AA) was purchased from American Peptide Company (Sunnyvale, Calif., USA) (product No. 14-1-90). cGMP kits were purchased from Cisbio (Bedford, Mass., USA). The assay ready frozen (ARF) Human/rat/dog NPRA HEK JumpIn Stable frozen cells (low passage number 5-11) were prepared in-house.
as §1, with “Envision®” for “Envision”, “(Perkin Elmer)(emission” for “(emission”
hNPRA EC50 (nM) are were determined for the compounds of Example 1 through 273 and are reported in the Experimental section of this application.

SMILES	EC50
CC1([C@H]2CCc3nc4ccc(C(=O)N[C@H](CCN5CCC(O)CC5)c5ccc(N6CCOC6=O)cc5)cc4cc3C2)CC1 [Example 1, (S)-N-((R)-3-(4-hydroxypiperidin-1-yl)-1-(4-(2-oxooxazolidin-3-yl)phenyl)propyl)-7-(1-methylcyclopropyl)-5,6,7,8-tetrahydroacridine-2-carboxamide]	701 nM
CC(C)[C@]1(F)CCc2nc3c(F)cc(C(=O)N[C@H](CCN4CCC(O)(CO)CC4)c4ccc(-c5ccnnc5)nc4)cc3cc2C1 [Example 19, (7S)-4,7-difluoro-N-[(1R)-3-[4-hydroxy-4-(hydroxymethyl)piperidin-1-yl]-1-(6-pyridazin-4-ylpyridin-3-yl)propyl]-7-(1-methylethyl)-5,6,7,8-tetrahydroacridine-2-carboxamide]	203 nM
O=C(N[C@H](CCN1CCC(O)CC1)c1ccc(N2CCOC2=O)cc1)c1ccc2nc3c(cc2c1)C[C@@H](C1(C(F)(F)F)CC1)CC3 [Example 4, (7S)-N-{(1R)-3-(4-hydroxypiperidin-1-yl)-1-[4-(2-oxo-1,3-oxazolidin-3-yl)phenyl]propyl}-7-[1-(trifluoromethyl)cyclopropyl]-5,6,7,8-tetrahydroacridine-2-carboxamide]	2220 nM
COC1CCN(CC[C@@H](NC(=O)c2cc(F)c3nc4c(cc3c2)C[C@](F)(C(C)C)CC4)c2ccc(-c3ccnnc3)nc2)CC1 [Example 18, (7S)-4,7-difluoro-N-[(1R)-3-(4-methoxypiperidin-1-yl)-1-(6-pyridazin-4-ylpyridin-3-yl)propyl]-7-(1-methylethyl)-5,6,7,8-tetrahydroacridine-2-carboxamide]	147 nM
COC(=O)C1CCN(CC[C@@H](NC(=O)c2cc(F)c3nc4c(cc3c2)C[C@](F)(C(C)C)CC4)c2ccc(-c3cnc(O)c(F)c3)cc2)CC1 [Example 24, methyl 1-((R)-3-((S)-4,7-difluoro-7-isopropyl-5,6,7,8-tetrahydroacridine-2-carboxamido)-3-(4-(5-fluoro-6-hydroxypyridin-3-yl)phenyl)propyl)piperidine-4-carboxylate]	237 nM
CC(C)[C@]1(F)CCc2nc3c(F)cc(C(=O)N[C@H](CCN4CCC5(CCO5)CC4)c4ccc(-c5ccnnc5)nc4)cc3cc2C1 [Example 17, (7S)-4,7-difluoro-7-(1-methylethyl)-N-[(1R)-3-(1-oxa-7-azaspiro[3.5]non-7-yl)-1-(6-pyridazin-4-ylpyridin-3-yl)propyl]-5,6,7,8-tetrahydroacridine-2-carboxamide]	217 nM

Now from value to molecule:

EC50	SMILES
258 nM	CC(C)C1CCN(CC[C@@H](NC(=O)c2cc(F)c3nc4c(cc3c2)C[C@](F)(C(C)C)CC4)c2ccc(-c3ccnnc3)nc2)CC1 (racemic) [Example 56, rac-(7S)-4,7-difluoro-7-isopropyl-N-[rac-(1R)-3-(4-isopropyl-1-piperidyl)-1-(6-pyridazin-4-yl-3-pyridyl)propyl]-6,8-dihydro-5H-acridine-2-carboxamide]
103 nM	CC(C)[C@]1(F)CCc2nc3c(F)cc(C(=O)N[C@H](CCN4[C@H](C)CCC[C@@H]4C)c4ccc(-c5ccnnc5)nc4)cc3cc2C1 (racemic) [Example 61, rac-(7S)-4,7-difluoro-7-isopropyl-N-[rac-(1R)-1-(6-pyridazin-4-yl-3-pyridyl)-3-[rac-(2R,6S)-2,6-dimethyl-1-piperidyllpropyl]-6,8-dihydro-5H-acridine-2-carboxamide]
240 nM	CC(C)[C@]1(F)CCc2nc3c(F)cc(C(=O)N[C@H](CCN4CCC5(CC4)COC5)c4ccc(-c5ccnnc5)nc4)cc3cc2C1 (racemic) [Example 50, rac-(7S)-4,7-difluoro-7-isopropyl-N-[rac-(1R)-3-(2-oxa-7-azaspiro[3.5]nonan-7-yl)-1-(6-pyridazin-4-yl-3-pyridyl)propyl]-6,8-dihydro-5H-acridine-2-carboxamide]
970 nM	CCS(=O)(=O)c1ccc([C@@H](CCN2CCC(O)CC2)NC(=O)c2cc(F)c3nc4c(cc3c2)CC(F)(C(C)C)CC4)cn1 (stereo in doubt) [Example 30, (S)-N-((R)-1-(6-(ethylsulfonyl)pyridin-3-yl)-3-(4-hydroxypiperidin-1-yl)propyl)-4,7-difluoro-7-isopropyl-5,6,7,8-tetrahydroacridine-2-carboxamide]
378 nM	CN(C)CC[C@@H](NC(=O)c1ccc2nc3c(cc2c1)C[C@@H](C1(C)CC1)CC3)c1cccc(C(=O)NC2CN(C)C2)c1 (racemic) [Example 67, rac-(7S)-7-(1-methylcyclopropyl)-N-[rac-(1R)-3-(dimethylamino)-1-[3-[(1-methylazetidin-3-yl)carbamoyl]phenyl]propyl]-5,6,7,8-tetrahydroacridine-2-carboxamide]
317 nM	CC(C)[C@]1(F)CCc2nc3c(F)cc(C(=O)N[C@H](CCN4CCC5(CCOC5)CC4)c4ccc(-c5ccnnc5)nc4)cc3cc2C1 (racemic) [Example 38, rac-(7S)-4,7-difluoro-7-isopropyl-N-[rac-(1R)-3-(2-oxa-8-azoniaspiro[4.5]decan-8-yl)-1-(6-pyridazin-4-yl-3-pyridyl)propyl]-6,8-dihydro-5H-acridine-2-carboxamide;2,2,2-trifluoroacetate]
136 nM	CC(C)[C@]1(F)CCc2nc3c(F)cc(C(=O)N[C@H](CCN4CCC(CO)CC4)c4ccc(-c5ccnnc5)nc4)cc3cc2C1 (racemic) [Example 45, rac-(7S)-4,7-difluoro-7-isopropyl-N-[rac-(1R)-3-[4-(hydroxymethyl)piperidin-1-ium-1-yl]-1-(6-pyridazin-4-yl-3-pyridyl)propyl]-6,8-dihydro-5H-acridine-2-carboxamide;2,2,2-trifluoroacetate]
217 nM	CC(C)[C@]1(F)CCc2nc3c(F)cc(C(=O)N[C@H](CCN4CCC(O)CC4)c4ccc(-c5cn[nH]c5)nc4)cc3cc2C1 [Example 32, (S)-N-((R)-1-(6-(1H-pyrazol-4-yl)pyridin-3-yl)-3-(4-hydroxypiperidin-1-yl)propyl)-4,7-difluoro-7-isopropyl-5,6,7,8-tetrahydroacridine-2-carboxamide]
